Results as given in patent US7094909B2, “HIV protease inhibitors, compositions containing the same, their pharmaceutical uses and materials for their synthesis” (priority 2001, dated 2006).
Values joined by “and” are separate entries in the source; they are usually repeats but may differ in a detail not shown here. Identical values can stand only once. Like-named read-outs stand apart in the source and are kept apart here.

Assays:
[1] = molecular target: T1, HIV-1 protease (Q7S mutant form) (Human immunodeficiency virus type 1 group M subtype B, UniProt P04585, Q495S); assay: HIV-1 Protease RET assay; format: biochemical
T1 construct: made in house
How it was run: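 Q7S HIV-1 protease, refolded from urea, 2 nM active dimer with 5 μM EDANS/DABCYL peptide cleaved at Tyr-Pro; fluorescence 340/490 nm. 12 min at 37 °C in 0.1M sodium acetate pH 4.8, 1M NaCl, 10% DMSO. Ki from Morrison tight-binding fit.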

[2] = tested on: HIV-1 NL4-3 or HIV-1 NL4-3(I84V/L90M); assay: Susceptibility assay, p24 ELISA in infected MT-2 cells; format: cell-based; conditions: Human immunodeficiency virus 1, NL43, MT2, read-out: EC50 or IC50 (mM), values without asterisk (EC50)
Description: T-cell lines, CEM-SS, and MT-2, and viruses HIV-1 RF and HIV-1 NL4-3 (pNL4-3) were obtained from the National Institutes of Health (AIDS Research and Reference Reagent Program, Bethesda, Md.).
Compounds were tested in phenotypic susceptibility assays at Virologic, Inc., (See Petropoulos C. J., Parkin N. T., Limoli K. L., Lie Y. S., Wrin T., Huang W., Tian H., Smith D., Winslow G. A., Capon D J, Whitcomb J M. 2000, “A novel phenotypic drug susceptibility assay for human immunodeficiency virus type 1,” Antimicrob Agents Chemother 44(4):920–928) or using the assay described here. MT-2 cells were infected with either HIV-1 NL4-3 or HIV-1 NL4-3([…]) and incubated in the presence of serial 0.5 log dilutions of test compounds. Three days later, culture supernatants were collected and virus production, as determined by p24 ELISA, was assayed. Percent inhibition was calculated as p24 concentration in compound-treated samples as compared to infected, compound-free controls. Inhibition of viral replication is determined by measuring reduction in HIV p24 present in the culture supernatant, using a Beckman-Coulter p24HIV-1 Ag EIA kit and following the supplied protocol. Absorbance is read on a MRX microplate reader (Dynex Technologies). The EC50 was calculated as the concentration of compound that effected a decrease in the p24 production by infected, compound-treated cells to 50% of that produced by infected, compound-free cells.

[3] = tested on: HIV-1 (HIV-1 RF, HIV-1 NL4-3) in CEM-SS / MT-2 cells; assay: Cytopathic effect (CPE) inhibition assay (XTT/MTT dye reduction); format: cell-based
How it was run: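 CEM-SS or MT-2 cells were infected with HIV-1 RF or NL4-3 (moi 0.025–0.819) and plated at 2×10^4 cells/well with half-log compound dilutions for 6 days. Viability was read by XTT formazan at 450 nm after 4 h. EC50 restores formazan to 50% of uninfected untreated cells, CC50 halves it in uninfected cells, and TI = CC50/EC50.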

[4] = Ave. Ki (nM), RET assay, Q7S enzyme, Morrison tight binding fit
[5] = Human immunodeficiency virus 1, NL43, read-out: Ave CPE EC50

Row | Structure (SMILES) | Ki [1, 4] | EC50 [2] | EC50 [3, 5] | Ki ([1]; Ki, unit inferred) | EC50 ([3]; unit inferred, read-out: EC50)
1 | Cc1c(O)cccc1C(=O)N[C@@H](Cc1ccccc1)[C@H](O)C(=O)N1CSC(C)(C)[C@H]1C(=O)N[C@H]1CCCc2occc21 (stereo in doubt) [Example A48, 3-[2-Hydroxy-3-(3-hydroxy-2-methyl-benzoylamino)-4-phenyl-butyryl]-5,5-dimethyl-thiazolidine-4-carboxylic acid (4,5,6,7-tetrahydro-benzofuran-4-yl)-amide] | < 0.1 nM | 92 nM | 37 nM | – | –
2 | Cc1c(O)cccc1C(=O)N[C@@H](Cc1ccccc1)[C@H](O)C(=O)N1CSC2(CCCC2)C1C(=O)N[C@@H]1C=CCCC1 (stereo in doubt) [Example C35, (S)-3-((2S,3S)-2-Hydroxy-3-{[1-(3-hydroxy-2-methyl-phenyl)-methanoyl]-amino}-4-phenyl-butanoyl)-1-thia-3-aza-spiro[4.4]nonane-4-carboxylic acid (S)-cyclohex-2-enylamide] | < 0.1 nM | 289 nM | 3 nM | – | –
3 | Cc1ccccc1CNC(=O)[C@@H]1CC(F)(F)CN1C(=O)[C@@H](O)[C@H](Cc1ccccc1)NC(=O)COc1c(C)cccc1C (stereo in doubt) [Example C40, 1-{3-[2-(2,6-Dimethyl-phenoxy)-acetylamino]-2-hydroxy-4-phenyl-butyryl}-4,4-difluoro-pyrrolidine-2-carboxylic acid 2-methyl-benzylamide] | 1.8 nM and 0.82 nM | 1800 nM | – | – | –
4 | Cc1c(O)cccc1C(=O)N[C@@H](Cc1ccccc1)[C@H](O)C(=O)N1CSC(C)(C)[C@H]1C(=O)NCc1ccc2c(c1)CCO2 [Example A9, (R)-3-((2S,3S)-2-Hydroxy-3-{[1-(3-hydroxy-2-methyl-phenyl)-methanoyl]-amino}-4-phenyl-butanoyl)-5,5-dimethyl-thiazolidine-4-carboxylic acid (2,3-dihydro-benzofuran-5-ylmethyl)-amide] | 0.49 nM | 1080 nM | 138 nM | – | –
5 | Cc1ccncc1CNC(=O)[C@H]1N(C(=O)[C@@H](O)[C@H](Cc2ccccc2)NC(=O)c2cccc(O)c2C)CSC1(C)C [Example A22, 3-(2-Hydroxy-3-{[1-(3-hydroxy-2-methyl-phenyl)-methanoyl]-amino}-4-phenyl-butanoyl)-5,5-dimethyl-thiazolidine-4-carboxylic acid-(4-methyl-pyridin-3-ylmethyl)amide] | < 0.1 nM | 318 nM | 138 nM | – | –
6 | COc1ccc(CNC(=O)[C@@H]2CC(F)(F)CN2C(=O)[C@@H](O)[C@H](Cc2ccccc2)NC(=O)c2cccc(O)c2C)cc1 [Example C13, (S)-4,4-Difluoro-1-[(2S,3S)-2-hydroxy-3-(3-hydroxy-2-methyl-benzoylamino)-4-phenyl-butyryl]-pyrrolidine-2-carboxylic acid 4-methoxy-benzylamide] | 0.59 nM | – | 1180 nM | – | –
7 | Cc1c(O)cccc1C(=O)N[C@@H](Cc1ccccc1)[C@H](O)C(=O)N1CC(F)(F)C(C)(C)[C@H]1C(=O)NCc1ccco1 [Example C20, (S)-4,4-Difluoro-1-[(2S,3S)-2-hydroxy-3-(3-hydroxy-2-methyl-benzoylamino)-4-phenyl-butyryl]-3,3-dimethyl-pyrrolidine-2-carboxylic acid (furan-2-ylmethyl)-amide] | < 0.1 nM | – | 35 nM | – | –
8 | Cc1ccccc1CNC(=O)[C@@H]1CC(F)(F)CN1C(=O)[C@@H](O)[C@H](Cc1ccccc1)NC(=O)O[C@H]1CCOC1 [Example C41, {(1S,2S)-1-Benzyl-3-[(S)-4,4-difluoro-2-(2-methyl-benzylcarbamoyl)-pyrrolidin-1-yl]-2-hydroxy-3-oxo-propyl}-carbamic acid (S)-(tetrahydro-furan-3-yl)ester] | 1.3 nM | – | 1430 nM | – | –
9 | Cc1ccccc1CNC(=O)[C@@H]1CC(F)(F)CN1C(=O)[C@@H](O)[C@H](Cc1ccccc1)NC(=O)c1ccc(C)c(O)c1C [Example C42, (S)-4,4-Difluoro-1-((2S,3S)-2-hydroxy-3-{[1-(3-hydroxy-2,4-dimethyl-phenyl)-methanoyl]-amino}-4-phenyl-butanoyl)-pyrrolidine-2-carboxylic acid 2-methyl-benzylamide] | 4 nM | – | 3200 nM | – | –
10 | CCCNC(=O)[C@@H]1CC(F)(F)CN1C(=O)[C@@H](O)[C@H](Cc1ccccc1)NC(=O)COc1c(C)cccc1C [Example C45, 1-{3-[2-(2,6-Dimethyl-phenoxy)-acetylamino]-2-hydroxy-4-phenyl-butyryl}-4,4-difluoro-pyrrolidine-2-carboxylic acid propylamide] | 3.6 nM | – | 1580 nM | – | –
11 | Cc1ccccc1CNC(=O)[C@H]1N(C(=O)[C@@H](O)[C@H](Cc2ccccc2)NC(=O)COc2c(C)cccc2C)CC(F)(F)C1(C)C [Example C46, (S)-1-{(2S,3S)-3-[2-(2,6-Dimethyl-phenoxy)-acetylamino]-2-hydroxy-4-phenyl-butyryl}-4,4-difluoro-3,3-dimethyl-pyrrolidine-2-carboxylic acid 2-methyl-benzylamide] | < 0.1 nM | – | 407 nM | – | –
12 | Cc1ccccc1CNC(=O)[C@H]1N(C(=O)[C@@H](O)[C@H](Cc2ccccc2)NC(=O)O[C@H]2CCOC2)COC1(C)C [Example C47, {(1S,2S)-1-Benzyl-3-[(S)-5,5-dimethyl-4-(2-methyl-benzylcarbamoyl)-oxazolidin-3-yl]-2-hydroxy-3-oxo-propyl}-carbamic acid (S)-(tetrahydro-furan-3-yl)ester] | 1.4 nM | – | 1380 nM | – | –
13 | Cc1ccccc1CNC(=O)[C@H]1N(C(=O)[C@@H](O)[C@H](Cc2ccccc2)NC(=O)c2cccc(O)c2C)CC(=O)C1(C)C [Example C48, 1-[2-Hydroxy-3-(3-hydroxy-2-methyl-benzoylamino)-4-phenyl-butyryl]-3,3-dimethyl-4-oxo-pyrrolidine-2-carboxylic acid 2-methyl-benzylamide] | < 0.1 nM | – | 128 nM | – | –
14 | Cc1ccccc1CNC(=O)[C@@H]1C2CCC(C2)N1C(=O)[C@@H](O)[C@H](Cc1ccccc1)NC(=O)c1cccc(O)c1C (stereo partly shown) [Example C50, 2-(2-Hydroxy-3-{[1-(-hydroxy-2-methyl-phenyl)-methanoyl]-amino}-4-phenyl-butanoyl)-2-aza-bicyclo[2.2.1]-heptane-3-carboxylic acid-2-methyl-benzylamide] | 7.9 nM | – | 997 nM | – | –
15 | CCCNC(=O)[C@H]1N(C(=O)[C@@H](O)[C@H](Cc2ccccc2)NC(=O)c2cc(C)cc(O)c2C)CC(F)(F)C1(C)C [Example D4, (S)-4,4-Difluoro-1-[(2S,3S)-2-hydroxy-3-(3-hydroxy-2,5-dimethyl-benzoylamino)-4-phenyl-butyryl]-3,3-dimethyl-pyrrolidine-2-carboxylic acid propylamide] | < 0.1 nM | – | 9 nM | – | –
16 | Cc1cc(O)c(C)c(C(=O)N[C@@H](Cc2ccccc2)[C@H](O)C(=O)N2CC(F)(F)C(C)(C)[C@H]2C(=O)NCC(C)C)c1 [Example D5, (S)-4,4-Difluoro-1-[(2S,3S)-2-hydroxy-3-(3-hydroxy-2,5-dimethyl-benzoylamino)-4-phenyl-butyryl]-3,3-dimethyl-pyrrolidine-2-carboxylic acid isobutyl-amide] | < 0.1 nM | – | 11 nM | – | –
17 | Cc1ccccc1CNC(=O)C1N(C(=O)[C@@H](O)[C@H](CSc2ccccc2)NC(=O)c2cccc(O)c2C)CSC1(C)C (stereo partly shown) [drawing 934] | – | – | – | ≤ 0.1 nM | 27 nM
18 | Cc1ccccc1CNC(=O)C1N(C(=O)[C@@H](O)[C@H](CSc2ccccc2)NC(=O)c2cccc(O)c2C)CSC1(C)C (stereo partly shown) [drawing 969] | – | – | – | 0.25 nM | 879 nM
